Assay results as given in US9657034B2, “Substituted furo[3,2-c]pyridines, thieno[3,2-c]pyridines, thieno[2,3-d]pyridazines and pyrido[3,4-d]pyridazines as phosphodiesterase type 10A inhibitors” (AbbVie Deutschland GmbH & Co. KG, priority 2011, dated 2017).

How the values were obtained:
PDE10A (human) = target: T1, PDE10A (human) (Homo sapiens, UniProt Q9Y233); experiment: Measurement of PDE activity (HTRF cAMP kit), PDE10A human; type: biochemical; conditions: Table 1
T1 construct: purchased BPS Bioscience
T1 sequence (Q9Y233 whole entry): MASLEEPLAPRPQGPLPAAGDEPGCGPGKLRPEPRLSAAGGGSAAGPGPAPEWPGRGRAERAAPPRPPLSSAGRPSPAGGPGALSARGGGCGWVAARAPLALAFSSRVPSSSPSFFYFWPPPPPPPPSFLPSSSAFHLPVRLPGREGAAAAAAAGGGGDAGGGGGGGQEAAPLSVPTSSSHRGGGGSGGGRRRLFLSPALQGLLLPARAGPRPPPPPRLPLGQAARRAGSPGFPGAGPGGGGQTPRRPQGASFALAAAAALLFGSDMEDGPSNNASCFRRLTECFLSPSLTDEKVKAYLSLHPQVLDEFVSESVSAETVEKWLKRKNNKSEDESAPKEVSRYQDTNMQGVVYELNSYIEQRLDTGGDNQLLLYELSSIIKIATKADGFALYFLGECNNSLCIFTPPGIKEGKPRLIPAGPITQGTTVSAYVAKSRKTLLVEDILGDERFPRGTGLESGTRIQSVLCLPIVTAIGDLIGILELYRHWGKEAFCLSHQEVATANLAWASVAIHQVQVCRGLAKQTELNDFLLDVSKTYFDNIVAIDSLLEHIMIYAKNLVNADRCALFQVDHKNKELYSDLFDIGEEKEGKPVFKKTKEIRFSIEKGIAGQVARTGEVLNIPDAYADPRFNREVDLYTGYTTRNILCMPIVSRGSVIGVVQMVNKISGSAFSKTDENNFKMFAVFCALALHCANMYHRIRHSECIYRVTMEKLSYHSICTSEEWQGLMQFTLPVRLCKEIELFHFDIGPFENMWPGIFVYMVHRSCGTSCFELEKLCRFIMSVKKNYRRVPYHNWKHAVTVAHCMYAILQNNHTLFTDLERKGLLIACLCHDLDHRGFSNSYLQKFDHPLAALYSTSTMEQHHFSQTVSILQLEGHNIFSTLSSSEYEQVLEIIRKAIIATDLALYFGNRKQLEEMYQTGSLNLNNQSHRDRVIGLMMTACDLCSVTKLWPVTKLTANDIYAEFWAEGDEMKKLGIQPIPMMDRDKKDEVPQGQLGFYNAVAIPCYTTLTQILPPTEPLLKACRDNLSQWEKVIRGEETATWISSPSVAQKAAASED
Protocol: The recombinant PDE proteins are used in in vitro enzymatic reaction for measurement of PDE activity. These recombinant proteins, including PDE10A (human, rat and mouse PDE10) and isoforms of PDEs 1, 3, 4, and 5, were purchased from commercial vendor BPS Bioscience. The enzymatic activity of PDEs was determined by cAMP measurement kit from CisBio (IBA) using HTRF technology.
The PDE enzymatic reaction was carried out in assay buffer (20 mM Tris-HCl pH7.5, 10 mM MgCl2, 0.1% bovine serum albumin) containing enzyme and substrate. The PDE enzymes concentration ranged from 10 pM-250 pM, depending on each enzyme's specific activity. The substrate cyclic nucleotide (cAMP or cGMP) concentration used in the assay was 20 nM for PDE10, and 100 nM for other PDEs. The inhibitory effect of compound was determined by incubating various concentration of inhibitor in the enzymatic assay. Typically, compound was serial diluted in DMSO then further diluted in assay buffer. Next, the compound at varying concentration was mixed with PDE enzyme. The reaction was initiated by addition of cyclic nucleotide substrate, and incubated for 60 minutes at 29 C. The reaction was stopped by addition of lysis buffer from assay kit. The cAMP-d2 and anti-cAMP cryptate in the lysis buffer detected the level of cAMP left from the PDE hydrolysis reaction. […]

rats [1] = conditions: cited from earlier work
rats [2] = conditions: cited from earlier work; remark: listed apart in the source
rats [3] = conditions: cited from earlier work; remark: listed apart in the source

Row | IC50 (PDE10A (human)) [nM] | Compound | reduction of amphetamine-induced hyperactivity (rats [1]) | catalepsy on its own (rats [2]; papaverine alone) | cataleptic effect of the D2 receptor antagonist haloperidol (rats [2]; together with haloperidol) | hyperactivity in rats induced by PCP (rats [3])
1 | < 100 | anti 8-((3 S)-3-hydroxypiperidin-1-yl)-2-(2-(quinolin-2-yl)cyclopropyl)isoquinolin-1(2H)-one (2E)-but-2-enedioate [Example 244] | – | – | – | –
2 | – | COc1ccc(Cc2nccc3cc(OC)c(OC)cc23)cc1OC [Papaverine, papaverine] | insignificant | did not cause catalepsy | potentiated the cataleptic effect | reduced hyperactivity
3 | < 100 | O=c1c2cccc(-c3cccc(O)c3)c2cnn1CCc1ccc2ccccc2n1 [Example 220, 5-(3-hydroxyphenyl)-2-[2-(quinolin-2-yl)ethyl]phthalazin-1(2H)-one] | – | – | – | –
